# Results as given in article PMC9027957, “Interspecies Comparisons of the Effects of Potential Antiviral 3-Amidinophenylalanine Derivatives on Cytochrome P450 1A2 Isoenzyme” (Veterinary Sciences, 2022).
# Columns and labels:
# CYP1A2 [1] = target: T1, CYP1A2 (Macaca fascicularis, UniProt O77809); assay: CYP1A2 fluorometric activity assay in cynomolgus monkey hepatic microsomes; assay type: in vitro ADME; parameters: cynomolgus monkey microsomal suspension (Primacyt, Schwerin, Germany, protein concentration: 5 mg/mL); tissue Primacyt, Schwerin, Germany; host or cells: liver (hepatic microsomes); settings: for CYP1A2 in the cynomolgus monkey microsomal model: inhibitors at 50 µM
# T1 sequence (O77809 1-516): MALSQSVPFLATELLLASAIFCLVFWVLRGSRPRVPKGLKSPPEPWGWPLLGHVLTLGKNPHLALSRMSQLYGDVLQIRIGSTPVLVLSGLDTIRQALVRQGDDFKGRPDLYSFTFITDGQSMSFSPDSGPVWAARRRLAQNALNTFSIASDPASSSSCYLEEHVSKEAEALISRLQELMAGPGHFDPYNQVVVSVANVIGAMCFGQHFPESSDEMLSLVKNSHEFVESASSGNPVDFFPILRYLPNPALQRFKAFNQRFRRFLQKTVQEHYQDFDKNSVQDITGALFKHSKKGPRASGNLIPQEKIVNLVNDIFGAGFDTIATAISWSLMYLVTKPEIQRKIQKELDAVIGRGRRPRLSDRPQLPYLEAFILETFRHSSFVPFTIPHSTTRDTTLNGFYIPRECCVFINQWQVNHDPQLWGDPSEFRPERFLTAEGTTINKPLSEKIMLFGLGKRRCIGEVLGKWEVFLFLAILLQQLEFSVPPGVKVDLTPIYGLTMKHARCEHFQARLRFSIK
# Description: (§1) The Biovision CYP assay (BioVision, Inc., Kampenhout, Belgium) utilizes a non-fluorescent CYP1A2 substrate capable of transforming into a highly fluorescent metabolite, which can be detected in the visible range. α-naphthoflavone was used as a CYP1A2 reference inhibitor at 6 µM during the experiments. Rat (Sprague–Dawley) and beagle (Gibco, Biocenter, Szeged, Hungary, protein concentration: 20 mg/mL) hepatic microsomal preparations were prepared separately by mixing 25 µL of the obtained rat or beagle microsomal suspension with 2425 µL assay buffer and with 50 µL NADPH generating system (100×). In the case of the cynomolgus monkey microsomal suspension (Primacyt, Schwerin, Germany, protein concentration: 5 mg/mL), the following volumes were applied: in addition to 100 µL of monkey microsomal suspension, the amount of assay buffer and the NADPH generating system were adjusted in order to ensure the original ratios of these components to reach a final volume of 2500 µL. Rat, beagle, and cynomolgus monkey microsomal suspension aliquots (50 µL) were treated with the protease inhibitor 20 µL, 0–1000 µM), the reference compound α-naphthoflavone (20 µL, 30 µM), or the assay buffer without test compounds (20 µL, background control) for 15 min at 37 °C. After incubation, 30 µL of the appropriate CYP1A2 substrate/NADP+ mixture was added to each well, yielding a final reaction volume of 100 µL/well. The protein contents of the obtained microsomes were analysed using bicinchoninic acid protein assay kit (Pierce BCA kit, Thermo Fisher Scientific, Waltham, MA, USA). […] The fluorescence intensities were measured with a fluorometer (Victor X2 2030, Perkin Elmer, Waltham, MA, USA), using λEx/Em = 406/468 nm.
# [2] = 60 min microsomal stability assay (UPLC-MS/MS), rat liver microsomes; assay type: in vitro ADME; settings: rat microsomes, 50 µM, 0.6 mg/mL protein, mean ± SD (n = 3)
# Description: (§2) Rat, beagle (Gibco, Biocenter, Szeged, Hungary), and cynomolgus monkey (Primacyt, Schwerin, Germany) liver microsomes were exposed to inhibitors MI-432, MI-463, MI-482, or MI-1900 at 50 µM for 60 min. The final microsomal protein concentration in the suspension was 0.6 mg/mL in each case. The reaction buffer (100 mM phosphate buffer pH 7.4) also contained 1 mM nicotinamide adenine dinucleotide phosphate (NADPH), 5 mM MgCl2, 10 mM glucose-6-phosphate (G6P), and 2 IU/mL glucose-6-phosphate dehydrogenase (G6PD). The reaction was terminated by the addition of ice-cold acetonitrile (ACN) with the ratio of sample ACN volume = 1:2. The precipitated protein was removed by centrifugation at 10,000× g for 10 min, and the supernatants were used for subsequent analyses.
# (§3) The determination of all analytes was carried out using an UPLC/MS/MS system, which consisted of an HPLC apparatus (SCIEX ExionLC^TM UPLC, Framigham, MA, USA) and a SCIEX Qtrap 4500 triple-quadrupole mass spectrometer (Framigham, MA, USA) equipped with a SCIEX Turbo V electrospray ionization source. The HPLC columns used were LiChrospher RP Select B (125 × 4.0 mm, 5.0 μm, C8 stationary phase). Next, 0.1% trifluoroacetic acid in ultra-purified water (A) and acetonitrile (B) were used as mobile phases for chromatographic separations applying a gradient elution. The HPLC gradient program was the following: between 0 and 10 min, a ratio of 70% A and 30% B; from 10 to 20 min, linearly increasing to a ratio of 50% A and 50% B; from 20 to 21 min, maintained at a ratio of 50% A and 50% B; from 21 to 22 min, linearly decreasing back to a ratio of 70% A and 30% B; and between 22 min and 30 min, maintained at a ratio of 70% A and 30% B. The run time was 30 min, the column temperature was adjusted to 35 °C, and the flow rate was 1 mL/min.
# CYP1A2 [3] = target: T2, CYP1A2 (Rattus norvegicus, UniProt P04799); assay: CYP1A2 fluorometric activity assay in rat hepatic microsomes; assay type: in vitro ADME, rat (Sprague–Dawley); parameters: Rat (Sprague–Dawley) and beagle (Gibco, Biocenter, Szeged, Hungary, protein concentration: 20 mg/mL) hepatic microsomal preparations; tissue Gibco, Biocenter, Szeged, Hungary; host or cells: liver (hepatic microsomes), Sprague-Dawley rat; settings: 15 min at 37 °C
# T2 sequence (P04799 1-513): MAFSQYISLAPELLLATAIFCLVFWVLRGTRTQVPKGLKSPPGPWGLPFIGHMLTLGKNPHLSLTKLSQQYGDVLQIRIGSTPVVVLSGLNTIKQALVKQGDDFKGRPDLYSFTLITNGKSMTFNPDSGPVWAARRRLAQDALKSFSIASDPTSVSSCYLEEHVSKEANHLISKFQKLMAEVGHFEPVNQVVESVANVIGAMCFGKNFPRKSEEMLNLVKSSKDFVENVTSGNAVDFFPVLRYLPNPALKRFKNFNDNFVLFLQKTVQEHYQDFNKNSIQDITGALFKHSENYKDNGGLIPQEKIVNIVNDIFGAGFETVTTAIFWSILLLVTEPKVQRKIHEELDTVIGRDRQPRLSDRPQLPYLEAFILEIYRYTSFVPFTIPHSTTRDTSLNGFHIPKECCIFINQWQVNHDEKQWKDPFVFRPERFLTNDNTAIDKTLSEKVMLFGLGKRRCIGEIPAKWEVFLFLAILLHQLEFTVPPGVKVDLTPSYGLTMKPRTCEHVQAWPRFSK
# Description: as §1
# [4] = 60 min microsomal stability assay (UPLC-MS/MS), beagle liver microsomes; assay type: in vitro ADME; settings: beagle microsomes, 50 µM, 0.6 mg/mL protein, mean ± SD (n = 3)
# Description: as §2, §3
# [5] = 60 min microsomal stability assay (UPLC-MS/MS), cynomolgus monkey liver microsomes; assay type: in vitro ADME; settings: monkey microsomes, 50 µM, 0.6 mg/mL protein, mean ± SD (n = 3)
# Description: as §2, §3
# CYP1A2 [6] = target: T3, CYP1A2 (Canis lupus familiaris, UniProt P56592); assay: CYP1A2 fluorometric activity assay in beagle hepatic microsomes; assay type: in vitro ADME; settings: 15 min at 37 °C
# T3 construct: endogenous in cells; host or cells: beagle hepatocytes
# T3 sequence (P56592 1-512): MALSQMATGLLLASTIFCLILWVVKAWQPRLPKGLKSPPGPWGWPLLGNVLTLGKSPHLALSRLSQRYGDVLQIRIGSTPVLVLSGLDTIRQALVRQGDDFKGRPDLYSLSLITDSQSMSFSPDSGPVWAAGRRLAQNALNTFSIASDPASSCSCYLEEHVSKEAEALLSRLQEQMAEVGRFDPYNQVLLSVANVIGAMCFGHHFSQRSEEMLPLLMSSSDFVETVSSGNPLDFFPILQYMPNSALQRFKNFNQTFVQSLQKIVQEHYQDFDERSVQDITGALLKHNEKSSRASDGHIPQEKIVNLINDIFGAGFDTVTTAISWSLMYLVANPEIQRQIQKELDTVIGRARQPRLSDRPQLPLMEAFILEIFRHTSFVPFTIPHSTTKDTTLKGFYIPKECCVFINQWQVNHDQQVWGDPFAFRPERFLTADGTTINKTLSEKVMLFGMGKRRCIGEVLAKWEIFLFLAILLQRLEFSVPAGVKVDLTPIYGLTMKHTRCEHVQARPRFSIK
# Description: as §1
# CYP1A2 [7] = target: T1, CYP1A2; settings: 10 µM
# Description: (§4) For the measurements of CYP1A2 activities, hepatocytes were grown on 24-well collagen-coated membrane inserts (Costar Transwell-PTFE membrane, 6.5 mm, pore size: 0.4 µm, Merck, Darmstadt, Germany). […] The determination of the CYP1A2 activities were performed using the P450-Glo CYP450 Assay (Promega, Madison, WI, USA) according to the manufacturer’s instructions.
# CYP1A2 [8] = target: T3, CYP1A2; assay type: cell-based; settings: dog, 10 µM
# Description: as §4
# CYP1A2 [9] = target: T2, CYP1A2; assay: CYP1A2 luminescent (P450-Glo) activity assay in rat hepatocytes; assay type: cell-based; parameters: endogenous in cells; host or cells: rat hepatocytes; settings: positive control at 10 µM
# Description: as §4
# [10] = inhibitors at 50 µM, vs untreated control
Compound,IC50 (CYP1A2 [1]) [nM],CYP1A2 in the cynomolgus monkey microsomal model (CYP1A2 [1]),depletion percentage of the parent compound [2] [%],rat hepatic microsomal CYP1A2 isoenzyme activity (CYP1A2 [3]; [10]),depletion percentage of the parent compound [4] [%],depletion percentage of the parent compound [5] [%],rat hepatic microsomal CYP1A2 isoenzyme activity (CYP1A2 [3]; reference inhibitor at 6 µM),beagle hepatic microsomal CYP1A2 isoenzyme activity (CYP1A2 [6]; reference inhibitor at 6 µM),CYP1A2 activity in cynomolgus monkey hepatocytes (CYP1A2 [7]),CYP1A2 activity in beagle hepatocytes (CYP1A2 [8]),CYP1A2 activity in rat hepatocytes (CYP1A2 [9]),beagle hepatic microsomal CYP1A2 isoenzyme activity (CYP1A2 [6]; [10])
COc1ccc(-c2cccc(S(=O)(=O)N[C@@H](Cc3cccc(C(=N)N)c3)C(=O)N3CCC(NC(=O)NC4CCCCC4)CC3)c2)c(OC)c1 [MI-463],2400 ± 1400,inhibited,15.1 ± 6.5,suppressed,15.7 ± 8,17.7 ± 4.6,–,–,–,–,–,–
"O=c1cc(-c2ccccc2)oc2c1ccc1ccccc12 [α-naphthoflavone, reference compound]",–,–,–,–,–,–,significantly suppressed CYP1A2 activities,significantly suppressed CYP1A2 activities,significantly suppress CYP1A2 activities,significantly suppress CYP1A2 activities,significantly suppress CYP1A2 activities,–
N=C(N)c1cccc(C[C@H](NS(=O)(=O)c2cccc(-c3cc(CO)ccc3Cl)c2)C(=O)N2CCC(CCNC(=O)NC3CCCCC3)CC2)c1 [MI-482],210 ± 90,inhibited,31.4 ± 1.1,did not inhibit CYP1A2 function,39.3 ± 6,15.1 ± 7.3,–,–,–,–,–,reduced the activity of CYP1A2
